Experimental data reported in ChEMBL document CHEMBL5120960, “Unveiling the Structure-Activity Relationships at the Orthosteric Binding Site of P2X Ion Channels: The Route to Selectivity” (J Med Chem, 2022).
pEC50, pIC50: −log10 of the molar value.

Columns and labels:
Format in all cases: cell-based
[1] = target: T1, P2X purinoceptor 1 (Homo sapiens, UniProt P51575); test: Antagonist activity at human P2X1R expressing CHO cells assessed as reduction in intracellular Ca2+ influx pretreated with Fluo-4 for 1 hr followed by compound addition and further incubated for 30 mins in presence of ATP by multimode plate reader analysis
T1 sequence (P51575 whole entry): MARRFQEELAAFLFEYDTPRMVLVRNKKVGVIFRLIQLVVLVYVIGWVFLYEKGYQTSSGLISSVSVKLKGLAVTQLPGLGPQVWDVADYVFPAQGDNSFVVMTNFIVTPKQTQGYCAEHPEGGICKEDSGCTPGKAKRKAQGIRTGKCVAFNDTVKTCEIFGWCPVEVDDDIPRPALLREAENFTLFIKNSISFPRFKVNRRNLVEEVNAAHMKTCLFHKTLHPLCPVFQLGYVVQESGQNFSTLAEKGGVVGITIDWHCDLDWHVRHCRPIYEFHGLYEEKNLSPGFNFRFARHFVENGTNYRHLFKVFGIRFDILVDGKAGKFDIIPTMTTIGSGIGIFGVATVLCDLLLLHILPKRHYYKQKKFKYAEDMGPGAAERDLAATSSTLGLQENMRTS

[2] = target: T2, P2X purinoceptor 3 (Homo sapiens, UniProt P56373); test: […] activity at human P2X3R expressing CHO cells assessed as reduction in intracellular Ca2+ influx pretreated with Fluo-4 for 1 hr followed by compound addition and further incubated for 30 mins in presence of ATP by multimode plate reader analysis
T2 sequence (P56373 whole entry): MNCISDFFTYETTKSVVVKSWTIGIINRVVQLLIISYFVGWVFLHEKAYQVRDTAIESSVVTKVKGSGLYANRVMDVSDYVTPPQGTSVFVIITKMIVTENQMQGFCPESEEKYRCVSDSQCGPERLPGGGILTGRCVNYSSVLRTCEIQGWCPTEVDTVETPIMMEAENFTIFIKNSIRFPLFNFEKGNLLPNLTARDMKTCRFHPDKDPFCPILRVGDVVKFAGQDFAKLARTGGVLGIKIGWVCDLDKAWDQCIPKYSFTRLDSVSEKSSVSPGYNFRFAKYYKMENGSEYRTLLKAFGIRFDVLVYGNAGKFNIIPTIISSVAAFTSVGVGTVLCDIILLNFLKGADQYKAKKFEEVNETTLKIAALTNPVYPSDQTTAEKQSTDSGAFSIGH

[3] = target: T3, P2X purinoceptor 2 (Homo sapiens, UniProt Q9UBL9); test: Antagonist activity at human P2X2R expressing CHO cells assessed as reduction in intracellular Ca2+ influx pretreated with Fluo-4 for 1 hr followed by compound addition and further incubated for 30 mins in presence of ATP by multimode plate reader analysis
T3 sequence (Q9UBL9 whole entry): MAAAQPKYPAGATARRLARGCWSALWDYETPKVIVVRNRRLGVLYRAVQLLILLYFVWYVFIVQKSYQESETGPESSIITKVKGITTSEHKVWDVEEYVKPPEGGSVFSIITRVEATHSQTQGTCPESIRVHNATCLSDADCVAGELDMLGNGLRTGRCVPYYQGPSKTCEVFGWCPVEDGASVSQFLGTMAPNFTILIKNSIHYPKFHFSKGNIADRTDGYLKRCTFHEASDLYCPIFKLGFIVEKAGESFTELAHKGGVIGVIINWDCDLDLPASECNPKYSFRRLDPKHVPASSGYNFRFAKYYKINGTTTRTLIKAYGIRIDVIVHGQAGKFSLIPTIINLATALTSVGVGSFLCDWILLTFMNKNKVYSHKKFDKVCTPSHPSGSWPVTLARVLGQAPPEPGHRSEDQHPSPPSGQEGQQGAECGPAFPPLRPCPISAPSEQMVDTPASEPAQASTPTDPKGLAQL

[4] = target: T4, P2X purinoceptor 4 (Homo sapiens, UniProt Q99571); test: […] activity at human P2X4R expressing HEK293 cells assessed as reduction in intracellular Ca2+ influx pretreated with Fluo-4 for 1 hr followed by compound addition and further incubated for 30 mins in presence of ATP by multimode plate reader analysis
T4 sequence (Q99571 whole entry): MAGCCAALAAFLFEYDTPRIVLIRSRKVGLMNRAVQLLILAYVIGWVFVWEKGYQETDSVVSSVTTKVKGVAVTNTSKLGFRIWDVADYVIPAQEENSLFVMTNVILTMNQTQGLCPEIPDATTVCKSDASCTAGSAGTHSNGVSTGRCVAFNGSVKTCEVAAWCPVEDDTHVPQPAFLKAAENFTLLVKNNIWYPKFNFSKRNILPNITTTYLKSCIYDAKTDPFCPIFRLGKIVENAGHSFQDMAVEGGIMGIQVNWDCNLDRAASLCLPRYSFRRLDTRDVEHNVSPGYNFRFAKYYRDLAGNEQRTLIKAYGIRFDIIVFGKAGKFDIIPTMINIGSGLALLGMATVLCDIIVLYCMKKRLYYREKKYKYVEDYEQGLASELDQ

[5] = target: T5, P2X purinoceptor 7 (Homo sapiens, UniProt Q99572); test: Antagonist activity at human P2X7R expressing HEK293 cells assessed as reduction in intracellular Ca2+ influx pretreated with Fluo-4 for 1 hr followed by compound addition and further incubated for 30 mins in presence of ATP by multimode plate reader analysis
T5 sequence (Q99572 whole entry): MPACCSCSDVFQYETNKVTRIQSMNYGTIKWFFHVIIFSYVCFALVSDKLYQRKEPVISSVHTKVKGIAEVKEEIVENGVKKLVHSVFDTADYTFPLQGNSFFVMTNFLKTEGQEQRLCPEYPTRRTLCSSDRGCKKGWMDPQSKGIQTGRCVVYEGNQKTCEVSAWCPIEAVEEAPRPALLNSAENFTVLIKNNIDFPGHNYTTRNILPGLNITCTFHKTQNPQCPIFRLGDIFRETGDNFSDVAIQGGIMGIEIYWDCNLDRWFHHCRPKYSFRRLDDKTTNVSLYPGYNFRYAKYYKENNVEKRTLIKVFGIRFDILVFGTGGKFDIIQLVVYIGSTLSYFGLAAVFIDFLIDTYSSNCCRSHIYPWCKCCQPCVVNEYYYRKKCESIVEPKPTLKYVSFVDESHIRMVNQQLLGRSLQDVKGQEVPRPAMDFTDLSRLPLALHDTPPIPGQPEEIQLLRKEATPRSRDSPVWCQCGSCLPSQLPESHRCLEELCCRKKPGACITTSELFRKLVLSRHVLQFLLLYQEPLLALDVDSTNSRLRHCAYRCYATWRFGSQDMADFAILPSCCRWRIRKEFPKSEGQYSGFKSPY

[6] = target: T6, P2X2/P2X3 heterotrimeric receptor (Homo sapiens, UniProt P56373+Q9UBL9); test: Antagonist activity at human P2X2R/P2X3R expressing CHO cells assessed as reduction in intracellular Ca2+ influx pretreated with Fluo-4 for 1 hr followed by compound addition and further incubated for 30 mins in presence of ATP by multimode plate reader analysis
T6 sequence (Q9UBL9 whole entry): T3 sequence (Q9UBL9 whole entry)
T6 sequence (P56373 whole entry): T2 sequence (P56373 whole entry)

[7] = target: T4, P2X purinoceptor 4; test: Antagonist activity at human P2X4R expressing HEK293 cells assessed as reduction in intracellular Ca2+ influx pretreated with Fluo-4 for 1 hr followed by compound addition and further incubated for 30 mins in presence of ATP by multimode plate reader analysis
[8] = target: T1, P2X purinoceptor 1; test: […] activity at human P2X1R expressing CHO cells assessed as reduction in intracellular Ca2+ influx pretreated with Fluo-4 for 1 hr followed by compound addition and further incubated for 30 mins in presence of ATP by multimode plate reader analysis
[9] = target: T5, P2X purinoceptor 7; test: […] activity at human P2X7R expressed in HEK293 cells assessed as reduction in YO-PRO-1 iodide dye uptake preincubated for 30 mins followed by YO-PRO-1 iodide addition and measured after 2 hrs by fluorescence based multimode plate reader analysis
[10] = target: T5, P2X purinoceptor 7; test: […] activity at human P2X7R expressing HEK293 cells assessed as reduction in intracellular Ca2+ influx pretreated with Fluo-4 for 1 hr followed by compound addition and further incubated for 30 mins in presence of ATP by multimode plate reader analysis
[11] = target: T6, P2X2/P2X3 heterotrimeric receptor; test: […] activity at human P2X2R/P2X3R expressing CHO cells assessed as reduction in intracellular Ca2+ influx pretreated with Fluo-4 for 1 hr followed by compound addition and further incubated for 30 mins in presence of ATP by multimode plate reader analysis
[12] = target: T3, P2X purinoceptor 2; test: […] activity at human P2X2R expressing CHO cells assessed as reduction in intracellular Ca2+ influx pretreated with Fluo-4 for 1 hr followed by compound addition and further incubated for 30 mins in presence of ATP by multimode plate reader analysis
[13] = target: T2, P2X purinoceptor 3; test: Antagonist activity at human P2X3R expressing CHO cells assessed as reduction in intracellular Ca2+ influx pretreated with Fluo-4 for 1 hr followed by compound addition and further incubated for 30 mins in presence of ATP by multimode plate reader analysis

pIC50 [1]	pIC50 [2]	pIC50 [3]	pIC50 [4]	pIC50 [5]	pIC50 [6]	pIC50 [7]	pIC50 [8]	pIC50 [9]	pIC50 [10]	pIC50 [11]	pIC50 [12]	pIC50 [13]	pEC50 [2]	pEC50 [4]	pEC50 [8]	pEC50 [9]	pEC50 [10]	pEC50 [11]	pEC50 [12]	SMILES
< 4.00	< 4.00	< 4.00	< 4.00	< 4.00	< 4.00	< 4.00	< 4.00	< 4.00	< 4.00	< 4.00	< 4.00	< 4.00	–	–	–	–	–	–	–	COc1ccc(C(=O)O[C@@H]2[C@H](OC(=O)c3ccc(OC)cc3)[C@@H](COP(=O)(O)OP(=O)(O)OP(=O)(O)O)O[C@H]2n2cnc3c(N)ncnc32)cc1
< 4.00	–	4.58	–	< 4.00	< 4.00	< 4.00	–	–	–	–	–	< 4.00	< 4.00	5.83	< 4.00	< 4.00	< 4.00	5.92	< 4.00	Nc1ncnc2c1ncn2[C@@H]1O[C@H](COP(=O)(O)OP(=O)(O)OP(=O)(O)O)[C@@H](OC(=O)c2ccccc2)[C@H]1OC(=O)c1ccccc1
